Data: patent US20140073651A1, “BENZAMIDE DERIVATIVES AS P2X7 RECEPTOR ANTAGONISTS” (Actelion Pharmaceuticals Ltd., priority 2011, published 2014)

Target: T1, human recombinant P2X7 receptor (Homo sapiens, UniProt Q99572)
T1 construct: expressed in transfected cells
T1 sequence (Q99572 1-595): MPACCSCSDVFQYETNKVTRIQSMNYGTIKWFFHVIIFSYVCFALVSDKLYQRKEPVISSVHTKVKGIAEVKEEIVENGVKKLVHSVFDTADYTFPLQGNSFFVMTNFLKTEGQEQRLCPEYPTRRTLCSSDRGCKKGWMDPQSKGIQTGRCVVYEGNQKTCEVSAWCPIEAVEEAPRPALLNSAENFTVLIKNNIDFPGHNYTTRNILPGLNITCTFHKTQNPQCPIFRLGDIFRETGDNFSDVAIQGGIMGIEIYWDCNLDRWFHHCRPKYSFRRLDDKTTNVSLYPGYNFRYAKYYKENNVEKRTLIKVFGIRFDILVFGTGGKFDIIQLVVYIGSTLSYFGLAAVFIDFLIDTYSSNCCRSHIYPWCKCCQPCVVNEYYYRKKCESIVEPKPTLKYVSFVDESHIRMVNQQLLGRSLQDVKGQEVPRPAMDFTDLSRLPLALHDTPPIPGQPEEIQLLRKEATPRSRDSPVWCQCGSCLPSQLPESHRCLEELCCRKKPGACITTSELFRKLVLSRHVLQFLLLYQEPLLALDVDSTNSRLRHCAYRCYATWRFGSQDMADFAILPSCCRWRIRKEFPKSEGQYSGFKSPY
Assay: YO-PRO assay (YO-PRO-1 uptake) in HEK cells stably expressing P2X7
Type: cell-based
Conditions: HEK-293 cells expressing human recombinant P2X7 receptor; ATP 250 μM, 90 minutes; YO-PRO-1 fluorescence (FLIPR tetra); read-out: IC50 (antagonistic activity with respect to the P2X7 receptor)
Summary of the method: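 Antagonist serially diluted (duplicates) on P2X7-expressing HEK cells in buffer with 0.5 μM YO-PRO-1; dye uptake followed on FLIPR Tetra over four time points. IC50 from maximum fluorescence intensity versus compound concentration.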

IC50 [nM] | Structure (SMILES)
418 | O=C(NCC1(O)CCCCC1)c1cc(Nc2cncnc2)ccc1Cl [Example 76, 2-Chloro-N-(1-hydroxy-cyclohexylmethyl)-5-(pyrimidin-5-ylamino)-benzamide]
439 | O=C(NCC1(O)CCCCC1)c1cc(Nc2cnccn2)ccc1Cl [Example 78, 2-Chloro-N-(1-hydroxy-cyclohexylmethyl)-5-(pyrazin-2-ylamino)-benzamide]
352 | CN(c1ccc(Cl)c(C(=O)NCC2(O)CCCCC2)c1)c1cnccn1 [Example 79, 2-Chloro-N-(1-hydroxy-cyclohexylmethyl)-5-(methyl-pyrazin-2-yl-amino)-benzamide]
1430 | COCCN(c1ccc(Cl)c(C(=O)NCC2(O)CCCCC2)c1)c1cnccn1 [Example 80, 2-Chloro-N-(1-hydroxy-cyclohexylmethyl)-5-[(2-methoxy-ethyl)-pyrazin-2-yl-amino]-benzamide]
245 | CN(c1ccc(Cl)c(C(=O)NCC2(O)CCCCC2)c1)c1cncc(Cl)n1 [Example 81, 2-Chloro-5-[(6-chloro-pyrazin-2-yl)-methyl-amino]-N-(1-hydroxy-cyclohexylmethyl)-benzamide]
76 | COc1cncc(N(C)c2ccc(Cl)c(C(=O)NCC3(O)CCCCC3)c2)n1 [Example 82, 2-Chloro-N-(1-hydroxy-cyclohexylmethyl)-5-[(6-methoxy-pyrazin-2-yl)-methyl-amino]-benzamide]
57 | CNc1cncc(N(C)c2ccc(Cl)c(C(=O)NCC3(O)CCCCC3)c2)n1 [Example 83, 2-Chloro-N-(1-hydroxy-cyclohexylmethyl)-5-[methyl-(6-methylamino-pyrazin-2-yl)-amino]-benzamide]
65 | CN(C)c1cncc(N(C)c2ccc(Cl)c(C(=O)NCC3(O)CCCCC3)c2)n1 [Example 84, 2-Chloro-5-[(6-dimethylamino-pyrazin-2-yl)-methyl-amino]-N-(1-hydroxy-cyclohexylmethyl)-benzamide]
190 | CN(c1ccc(Cl)c(C(=O)NCC2(O)CCCCC2)c1)c1cnc(Cl)cn1 [Example 87, 2-Chloro-5-[(5-chloro-pyrazin-2-yl)-methyl-amino]-N-(1-hydroxy-cyclohexylmethyl)-benzamide]
82 | O=C(NCC1(O)CCCCC1)c1cc(Nc2ccccn2)ccc1Cl [Example 92, 2-Chloro-N-(1-hydroxy-cyclohexylmethyl)-5-(pyridin-2-ylamino)-benzamide]
111 | CN(c1ccc(Cl)c(C(=O)NCC2(O)CCCCC2)c1)c1ccccn1 [Example 93, 2-Chloro-N-(1-hydroxy-cyclohexylmethyl)-5-(methyl-pyridin-2-yl-amino)-benzamide]
160 | O=C(NCC1(O)CCCCC1)c1cc(Nc2cccc(=O)[nH]2)ccc1Cl [Example 94, 2-Chloro-N-(1-hydroxy-cyclohexylmethyl)-5-(6-oxo-1,6-dihydro-pyridin-2-ylamino)-benzamide]
351 | CN(c1ccc(Cl)c(C(=O)NCC2(O)CCCCC2)c1)c1cccc(=O)[nH]1 [Example 95, 2-Chloro-N-(1-hydroxy-cyclohexylmethyl)-5-[methyl-(6-oxo-1,6-dihydro-pyridin-2-yl)-amino]-benzamide]
148 | Cn1cccc(Nc2ccc(Cl)c(C(=O)NCC3(O)CCCCC3)c2)c1=O [Example 99, 2-Chloro-N-(1-hydroxy-cyclohexylmethyl)-5-(1-methyl-2-oxo-1,2-dihydro-pyridin-3-ylamino)-benzamide]
319 | CN(c1ccc(Cl)c(C(=O)NCC2(O)CCCCC2)c1)c1ccnn1C [Example 101, 2-Chloro-N-(1-hydroxy-cyclohexylmethyl)-5-[methyl-(2-methyl-2H-pyrazol-3-yl)-amino]-benzamide]
100 | O=C(NCC1(O)CCCCC1)c1cc(Oc2ccnc(Cl)c2)ccc1Cl [Example 104, 2-Chloro-5-(2-chloro-pyridin-4-yloxy)-N-(1-hydroxy-cyclohexylmethyl)-benzamide]
47 | O=C(NCC1(O)CCCCC1)c1cc(Oc2ccccn2)ccc1Cl [Example 105, 2-Chloro-N-(1-hydroxy-cyclohexylmethyl)-5-(pyridin-2-yloxy)-benzamide]
64 | O=C(NCC1(O)CCCCC1)c1cc(Oc2cccc(Cl)n2)ccc1Cl [Example 108, 2-Chloro-5-(6-chloro-pyridin-2-yloxy)-N-(1-hydroxy-cyclohexylmethyl)-benzamide]
122 | CN(C)c1cccc(Oc2ccc(Cl)c(C(=O)NCC3(O)CCCCC3)c2)n1 [Example 110, 2-Chloro-5-(6-dimethylamino-pyridin-2-yloxy)-N-(1-hydroxy-cyclohexylmethyl)-benzamide]

More lines, now with the values behind:

Structure (SMILES) | IC50 [nM]
COCCN(c1cncnc1)c1ccc(Cl)c(C(=O)NCC2(O)CCCCC2)c1 [Example 77, 2-Chloro-N-(1-hydroxy-cyclohexylmethyl)-5-[(2-methoxy-ethyl)-pyrimidin-5-yl-amino]-benzamide] | 1460
CN(c1ccc(Cl)c(C(=O)NCC2(O)CCCCC2)c1)c1cncc(=O)[nH]1 [Example 85, 2-Chloro-N-(1-hydroxy-cyclohexylmethyl)-5-[methyl-(6-oxo-1,6-dihydro-pyrazin-2-yl)-amino]-benzamide] | 177
CN(c1ccc(Cl)c(C(=O)NCC2(O)CCCCC2)c1)c1nccnc1Cl [Example 86, 2-Chloro-5-[(3-chloro-pyrazin-2-yl)-methyl-amino]-N-(1-hydroxy-cyclohexylmethyl)-benzamide] | 61
COc1cnc(N(C)c2ccc(Cl)c(C(=O)NCC3(O)CCCCC3)c2)cn1 [Example 88, 2-Chloro-N-(1-hydroxy-cyclohexylmethyl)-5-[(5-methoxy-pyrazin-2-yl)-methyl-amino]-benzamide] | 302
CN(c1ccc(Cl)c(C(=O)NCC2(O)CCCCC2)c1)c1ccc(Cl)nn1 [Example 89, 2-Chloro-5-[(6-chloro-pyridazin-3-yl)-methyl-amino]-N-(1-hydroxy-cyclohexylmethyl)-benzamide] | 271
CN(c1ccc(Cl)c(C(=O)NCC2(O)CCCCC2)c1)c1ccc(=O)[nH]n1 [Example 90, 2-Chloro-N-(1-hydroxy-cyclohexylmethyl)-5-[methyl-(6-oxo-1,6-dihydro-pyridazin-3-yl)-amino]-benzamide] | 905
COc1ccc(N(C)c2ccc(Cl)c(C(=O)NCC3(O)CCCCC3)c2)nn1 [Example 91, 2-Chloro-N-(1-hydroxy-cyclohexylmethyl)-5-[(6-methoxy-pyridazin-3-yl)-methyl-amino]-benzamide] | 354
Cn1c(Nc2ccc(Cl)c(C(=O)NCC3(O)CCCCC3)c2)cccc1=O [Example 96, 2-Chloro-N-(1-hydroxy-cyclohexylmethyl)-5-(1-methyl-6-oxo-1,6-dihydro-pyridin-2-ylamino)-benzamide] | 123
COCCn1c(Nc2ccc(Cl)c(C(=O)NCC3(O)CCCCC3)c2)cccc1=O [Example 97, 2-Chloro-N-(1-hydroxy-cyclohexylmethyl)-5-[1-(2-methoxy-ethyl)-6-oxo-1,6-dihydro-pyridin-2-ylamino]-benzamide] | 317
COCCn1c(N(C)c2ccc(Cl)c(C(=O)NCC3(O)CCCCC3)c2)cccc1=O [Example 98, 2-Chloro-N-(1-hydroxy-cyclohexylmethyl)-5-{[1-(2-methoxy-ethyl)-6-oxo-1,6-dihydro-pyridin-2-yl]-methyl-amino}-benzamide] | 332
Cn1nccc1Nc1ccc(Cl)c(C(=O)NCC2(O)CCCCC2)c1 [Example 100, 2-Chloro-N-(1-hydroxy-cyclohexylmethyl)-5-(2-methyl-2H-pyrazol-3-ylamino)-benzamide] | 217
O=C(NCC1(O)CCCCC1)c1cc(Oc2cccc(F)n2)ccc1Cl [Example 102, 2-Chloro-5-(6-fluoro-pyridin-2-yloxy)-N-(1-hydroxy-cyclohexylmethyl)-benzamide] | 37
O=C(NCC1(O)CCCCC1)c1cc(Oc2cc(F)ccn2)ccc1Cl [Example 103, 2-Chloro-5-(4-fluoro-pyridin-2-yloxy)-N-(1-hydroxy-cyclohexylmethyl)-benzamide] | 46
O=C(NCC1(O)CCCCC1)c1cc(Oc2ccncc2)ccc1Cl [Example 106, 2-Chloro-N-(1-hydroxy-cyclohexylmethyl)-5-(pyridin-4-yloxy)-benzamide] | 1720
O=C(NCC1(O)CCCCC1)c1cc(Oc2cccnc2)ccc1Cl [Example 107, 2-Chloro-N-(1-hydroxy-cyclohexylmethyl)-5-(pyridin-3-yloxy)-benzamide] | 70
CNc1cccc(Oc2ccc(Cl)c(C(=O)NCC3(O)CCCCC3)c2)n1 [Example 109, 2-Chloro-N-(1-hydroxy-cyclohexylmethyl)-5-(6-methylamino-pyridin-2-yloxy)-benzamide] | 53
COc1cccc(Oc2ccc(Cl)c(C(=O)NCC3(O)CCCCC3)c2)n1 [Example 111, 2-Chloro-N-(1-hydroxy-cyclohexylmethyl)-5-(6-methoxy-pyridin-2-yloxy)-benzamide] | 21
